Structures can show the parent of a compound that is named as a salt.
Columns and labels:
[1] = test system: tonic extensor seizures in mice (electroshock); assay: Maximal electroshock convulsion test; assay type: in vivo, male dd mice; conditions: 100 mg/Kg p.o., 1 hr before shock; blocking tonic extensor seizures
Description: (§1) Anticonvulsant activity was determined according to the following three methods.
Groups of 10 male dd mice weighing 22-24 g were used. The drugs were orally administered and one hr. later, the mice were subjected to an electric current (2000 V, 50 mA) for 0.2 sec. through corneal electrodes. Drug activity is expressed as the percent blocking tonic extensor seizures.

mice [2] = assay: Muscle relaxant activity: rotating rod test; assay type: in vivo, male dd mice
Description: (§2) Groups of 5 male dd mice weighing 19-21 g were used. The mice which remained for a period of 3 min. on a 3 cm diameter rod rotating at 5 r.p.m. were selected and tested to determine the muscle relaxant activity at 1, 2 and 4 hr. after drug administration. The methods employed are as follows.
Each mouse was mounted on a rotating rod to examine whether it fell off or not within 2 min.
(§3) In each test, the compound was considered to have the muscle relaxant activity when the mice fell off.

[3] = Acute toxicity, oral, mice; conditions: mouse, in vivo, p.o., 7 days mortality
Description: (§4) Male dd mice weighing 19-21 g and male Wistar rats weighing 170-190 g were used in groups of 3-6 animals. The drugs were suspended in a 0.3% carboxymethyl cellulose solution and administered orally. […] As the reference compound, benzydamine.HCl was dissolved in water and administered orally. (In Example, 6, 7 and 8, the drugs and benzydamine. HCl were also administered in the same manner.

[4] = test system: tonic extensor seizures in mice (strychnine); assay: Strychnine convulsion test; assay type: in vivo, male dd mice; conditions: 1 hr before strychnine 2 mg/kg s.c.
Description: as §1
Groups of 10 male dd mice weighing 19-21 g were used. The drugs were orally administered and one hr. later, strychnine was injected subcutaneously at 2 mg/kg. Drug activity is expressed as the percent blocking tonic extensor seizures.

mice [5] = assay: Muscle relaxant activity: slant test; assay type: in vivo, male dd mice
Description: as §2
Each mouse was mounted on a 45°-inclined wire netting to examine whether it fell off or not.
as §3

[6] = test system: acetic acid writhing in mice; assay: Analgesic activity: acetic acid writhing; assay type: in vivo, male dd mice; conditions: number of writhes vs control
Description: Groups of 10 male dd mice weighing 19-21 g were used. One hr. after drug administration, 0.2 ml of a 0.7% aqueous solution of acetic acid was injected intraperitoneally. Ten min. after acetic acid injection, the number of writhes was counted for each mouse during the following 10 min. Drug activity is expressed as the percent inhibition of the number of writhes in the control group.

[7] = test system: clonic seizures in mice (pentetrazol); assay: Pentetrazol convulsion test; assay type: in vivo, male dd mice; conditions: 1 hr before pentetrazol 120 mg/kg s.c.
Description: as §1
Groups of 10 male dd mice weighing 19-21 g were used. The drugs were orally administered and one hr. later, pentetrazol was injected subcutaneously at 120 mg/kg. Drug activity is expressed as the percent blocking clonic seizures.

[8] = test system: carrageenin hind paw edema in rats; assay: Anti-inflammatory activity: carrageenin paw edema; assay type: in vivo, male Wistar rats; conditions: edema 3 hr after carrageenin, vs control
Description: Groups of 5 male Wistar rats weighing 130-150 g were used. One hr. after drug administration, 0.1 ml of a 1% aqueous suspension of carrageenin was injected into the plantar surface of the right hind paw. The volume of the injected paw was measured before and 3 hr. after carrageenin injection by mercury displacement. Drug activity is expressed as the percent difference between the test and control groups' edema.

mice [9] = assay: Muscle relaxant activity: traction test; assay type: in vivo, male dd mice
Description: as §2
Forefeet of each mouse were placed on a wire to examine whether it fell off or not.
as §3

[10] = Acute toxicity, oral, rats; conditions: rat, in vivo, p.o., 7 days mortality
Description: as §4

[11] = 300 mg/kg p.o., 1 hr after administration
[12] = 300 mg/kg p.o., 2 hr after administration
[13] = 300 mg/kg p.o., 4 hr after administration
[14] = 200 mg/kg p.o., 1 hr after administration
[15] = 200 mg/kg p.o., 2 hr after administration
[16] = 200 mg/kg p.o., 4 hr after administration

Row | SMILES | % Inhibition, Maximal Electroshock Test [1] [%] | No. of falling mice/five tested mice, rotating rod test (mice [2]; [11]) [mice/five tested mice] | No. of falling mice/five tested mice, rotating rod test (mice [2]; [12]) [mice/five tested mice] | No. of falling mice/five tested mice, rotating rod test (mice [2]; [13]) [mice/five tested mice] | LD50 at 168 h [3] [mg/kg] | % Inhibition, Strychnine Convulsion Test ([4]; 300 mg/Kg p.o.) [%] | No. of falling mice/five tested mice, slant test (mice [5]; [11]) [mice/five tested mice] | No. of falling mice/five tested mice, slant test (mice [5]; [12]) [mice/five tested mice] | No. of falling mice/five tested mice, slant test (mice [5]; [13]) [mice/five tested mice] | Analgesic Activity, % Inhibition ([6]; 150 mg/Kg p.o.) [%] | % Inhibition, Pentetrazole Convulsion Test ([7]; 150 mg/Kg p.o.) [%] | Anti-inflammatory Activity, % Inhibition ([8]; 300 mg/Kg p.o.) [%] | No. of falling mice/five tested mice, traction test (mice [9]; [11]) [mice/five tested mice] | No. of falling mice/five tested mice, traction test (mice [9]; [12]) [mice/five tested mice] | No. of falling mice/five tested mice, traction test (mice [9]; [13]) [mice/five tested mice] | LD50 at 168 h [10] [mg/kg] | also measured
1 | COc1ccc2oc(CC(=O)N(C)C)c(C)c2c1 [A, 2-dimethylcarbamoylmethyl-3-methyl-5 methoxybenzo[b]furan] | 30 | 5 | 3 | 1 | > 1000 | 60 | 3 | 1.5 | 0 | 83.6 | 40 | 23.3 | 2 | 2 | 0 | – | –
2 | Cc1c(CC(=O)N(C)C)oc2ccc(-c3ccccc3)cc12 [C, 2-dimethylcarbamoylmethyl-3-methyl-5-phenylbenzo[b]furan] | 100 | 3 | 3 | 0 | > 1000 | 70 | 1.5 | 1.5 | 0 | 48.4 | 30 | 20.4 | 2 | 3 | 0 | – | –
3 | CN(C)CCCOc1nn(Cc2ccccc2)c2ccccc12 [Benzydamine . HCl, reference compound] | 100 | – | – | – | 500 to 1000 | – | – | – | – | – | – | – | – | – | – | > 1500 | No. of falling mice/five tested mice, rotating rod test (mice [2]; [14]): 4 mice/five tested mice; No. of falling mice/five tested mice, rotating rod test (mice [2]; [15]): 2 mice/five tested mice; No. of falling mice/five tested mice, rotating rod test (mice [2]; [16]): 0 mice/five tested mice; % Inhibition, Strychnine Convulsion Test ([4]; 100 mg/Kg p.o.): 70%; No. of falling mice/five tested mice, slant test (mice [5]; [14]): 2 mice/five tested mice; No. of falling mice/five tested mice, slant test (mice [5]; [15]): 1 mice/five tested mice; No. of falling mice/five tested mice, slant test (mice [5]; [16]): 0 mice/five tested mice; Analgesic Activity, % Inhibition ([6]; 400 mg/Kg p.o.): 95.2%; % Inhibition, Pentetrazole Convulsion Test ([7]; 200 mg/Kg p.o.): 0%; Anti-inflammatory Activity, % Inhibition ([8]; 400 mg/Kg p.o.): 20.9%; No. of falling mice/five tested mice, traction test (mice [9]; [14]): 0 mice/five tested mice; No. of falling mice/five tested mice, traction test (mice [9]; [15]): 0 mice/five tested mice; No. of falling mice/five tested mice, traction test (mice [9]; [16]): 0 mice/five tested mice
4 | Cc1c(CC(=O)N(C)C)oc2ccc(F)cc12 [D, 2-dimethylcarbamoylmethyl-3-methyl-5-fluorobenzo[b]furan] | 85 | 5 | 5 | 2 | > 1000 | 57 | 4.5 | 4.5 | 1 | 32.9 | 80 | 31.2 | 5 | 5 | 1 | – | –
5 | Cc1ccc2oc(CC(=O)N(C)C)c(C)c2c1 [B, 2-dimethylcarbamoylmethyl-3,5-dimethylbenzo[b]furan] | 80 | 5 | 5 | 0 | > 3000 | 88 | 5 | 4 | 0 | 24.0 | 90 | 10.2 | 5 | 5 | 0 | > 3000 | –

Reference: patent US4297369A, “Certain muscle relaxant 3-methyl-2-benzofuran acetamides” (Kyowa Hakko Kogyo Co., Ltd., priority 1979, dated 1981)
